Where a name gives a salt, the structure may show the parent alone. Each block holds one molecule with its values, some of them ahead of it.
Columns and labels:
human NK1 receptor [1] = biological target: T1, human NK1 receptor (Homo sapiens, UniProt P25103); assay: [3H]substance P binding at human NK1 receptors in CHO cells; conditions: [3H]substance P 0.6 nM, 60 min room temperature, read-out: affinity (pKi) for the human NK1 receptor (converted)
Description: All assays were performed in triplicate in at least2 separate experiments.

in vivo = conditions: dog; for bioavailability: po
NK3 receptors = biological target: T2, NK3 receptors (Homo sapiens, UniProt P29371); assay: Selectivity for NK1 compared to NK3 receptors; assay type: binding
T2 sequence (P29371 1-465): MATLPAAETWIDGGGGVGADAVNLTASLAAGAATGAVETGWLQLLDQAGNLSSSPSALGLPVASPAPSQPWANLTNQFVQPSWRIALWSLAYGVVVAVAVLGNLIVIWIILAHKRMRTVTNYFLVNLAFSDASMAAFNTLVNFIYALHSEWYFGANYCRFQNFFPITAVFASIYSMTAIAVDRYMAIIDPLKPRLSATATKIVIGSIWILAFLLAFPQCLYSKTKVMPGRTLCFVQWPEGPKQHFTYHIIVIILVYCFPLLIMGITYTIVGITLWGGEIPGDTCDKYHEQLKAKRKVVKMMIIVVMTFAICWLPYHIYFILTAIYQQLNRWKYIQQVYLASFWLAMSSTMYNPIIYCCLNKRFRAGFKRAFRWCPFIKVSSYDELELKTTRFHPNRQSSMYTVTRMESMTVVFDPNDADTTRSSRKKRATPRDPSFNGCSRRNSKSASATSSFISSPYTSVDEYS

[2] = system: emesis induced in ferrets by emetogens; assay: Antiemetic test in ferrets; assay type: in vivo, ferret; conditions: for emesis induced by all emetogens (apomorphine, morphine, ipecacuanha, cisplatin, CuSO4): 0.3 mg/kg p.o., 2 hours before the emetogen
Description: The compound of formula 1a, 2-(3,5-Bis-trifluoromethyl-phenyl)-N-methyl-N-(6-morpholin-4-yl-4-o-tolyl-pyridin-3-yl)-isobutyramide, was also tested as an antiemetic agent in ferrets.
2-(3,5-bis-trifluoromethyl-phenyl)-N-methyl-N-[6-(4-methyl-piperazin-1-yl)-4-o-tolyl-pyridin-3-yl]-isobutyramide was also tested as an antiemetic agent in Ferrets.

[3] = system: foot-tapping behaviour induced in gerbils with an NK1 receptor agonist; assay: Foot-tapping behaviour induced by i.c.v. NK1 receptor agonist; assay type: in vivo, gerbil; conditions: for dose calculated to inhibit 50% of the foot-tapping behaviour: oral administration
Description: (§1) In vivo the compound of formula Ia antagonises foot-tapping behaviour induced in gerbils with intracerebroventricular (i.c.v.) injections of an NK1 receptor agonist. The dose for this compound calculated to inhibit 50% of the foot-tapping behaviour following oral administration was 0.2 mg/kg.
as §1, with “2-(3,5-bis-trifluoromethyl-phenyl)-N-methyl-N-[6-(4-methyl-piperazin-1-yl)-4-o-tolyl-pyridin-3-yl]-isobutyramide” for “the compound of formula Ia”, “Gerbils” for “gerbils”, “of” for “for”, “0.5” for “0.2”
In vivo the compound of formula Ic antagonises foot-tapping behaviour induced in Gerbils with intracerebroventricular (i.c.v.) injections of an NK1 receptor agonist. The dose of this compound calculated to inhibit 50% of the foot-tapping behaviour following oral administration was 1.5 mg/kg.

[4] = system: over 50 other binding sites; assay: Selectivity for NK1 compared to over 50 other binding sites
[5] = Pharmacokinetic parameters in rats; conditions: rat, in vivo; for bioavailability: po; for half-life: read-out: terminal half-life (converted); for Vd: read-out: volume of distribution
NK2 receptors = biological target: T3, NK2 receptors (Homo sapiens, UniProt P21452); assay: Selectivity for NK1 compared to NK2 receptors; assay type: binding
T3 sequence (P21452 1-398): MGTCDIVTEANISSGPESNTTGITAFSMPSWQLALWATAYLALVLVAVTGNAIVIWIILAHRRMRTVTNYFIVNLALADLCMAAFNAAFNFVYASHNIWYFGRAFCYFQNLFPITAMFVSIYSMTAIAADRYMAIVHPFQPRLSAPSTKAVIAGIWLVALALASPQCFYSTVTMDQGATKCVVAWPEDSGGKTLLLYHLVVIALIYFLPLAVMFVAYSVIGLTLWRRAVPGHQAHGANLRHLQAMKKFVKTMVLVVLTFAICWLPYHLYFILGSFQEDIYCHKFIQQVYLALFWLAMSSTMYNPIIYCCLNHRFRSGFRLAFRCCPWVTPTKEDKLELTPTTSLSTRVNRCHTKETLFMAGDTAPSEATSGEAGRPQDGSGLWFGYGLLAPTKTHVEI

human NK1 receptor [6] = biological target: T1, human NK1 receptor; assay: Substance P induced Ca2+ influx in CHO cells (FLIPR); assay type: cell-based; parameters: expressed in transfected cells; host or cells: CHO cells; conditions: for effect on substance P induced Ca2+ influxes: CHO cells expressing recombinant human NK1 receptor, FLIPR; for type of antagonism at human recombinant NK1 receptors: from Ca2+ influx data
Text: (§2) The activity in vitro of the compound of formula 1a was examined by studying its effect on substance P induced Ca^2+ influxes in CHO cells expressing the recombinant human NK1 receptor. In these cells, substance P causes a concentration dependent influx of Ca^2+ which can be measured using FLIPR technology.
The activity of 2-(3,5-bis-trifluoromethyl-phenyl)-N-methyl-N-[^6-(^4-methyl-piperazin-1-yl)-4-o-tolyl-pyridin-3-yl]-isobutyramide in vitro was examined by studying its effect on substance P induced Ca^2+influxes in CHO cells expressing the recombinant human NK1 receptor. In these cells, substance P causes a concentration dependent influx of Ca^2+ which can be measured using FLIPR technology.
as §2, with “activity” for “activity in vitro”, “Ic in vitro” for “1a”

[7] = system: motion sickness in the suncus murinus; assay: Model of motion sickness in suncus murinus; assay type: in vivo; conditions: po

T1 sequence (P25103 whole entry): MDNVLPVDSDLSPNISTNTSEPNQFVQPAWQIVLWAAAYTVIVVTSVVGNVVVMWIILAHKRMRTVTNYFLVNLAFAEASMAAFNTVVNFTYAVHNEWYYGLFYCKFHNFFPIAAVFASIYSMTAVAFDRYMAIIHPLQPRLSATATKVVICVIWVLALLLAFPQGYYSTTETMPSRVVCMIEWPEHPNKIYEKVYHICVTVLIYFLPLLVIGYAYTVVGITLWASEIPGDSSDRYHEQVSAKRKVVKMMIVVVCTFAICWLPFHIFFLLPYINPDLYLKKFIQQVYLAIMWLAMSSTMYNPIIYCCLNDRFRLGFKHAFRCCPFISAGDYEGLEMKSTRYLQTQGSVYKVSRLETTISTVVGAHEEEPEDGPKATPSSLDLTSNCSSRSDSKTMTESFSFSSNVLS

Structure (SMILES): Cc1ccccc1-c1cc(N2CCOCC2)ncc1N(C)C(=O)C(C)(C)c1cc(C(F)(F)F)cc(C(F)(F)F)c1 (as salt: hydrochloride) [Ia, 2-(3,5-bis-trifluoromethyl-phenyl)-N-methyl-N-(6-morpholin-4-yl-4-o-tolyl-pyridin-3-yl)-isobutyramide]
- melting point: 73.5 to 76 °C

Structure (SMILES): CN(C(=O)C(C)(C)c1cc(C(F)(F)F)cc(C(F)(F)F)c1)c1cnccc1-c1ccccc1Cl (as salt: hydrochloride) [Ic, 2-(3,5-Bis-trifluoromethyl-phenyl)-N-[4-(2-chloro-phenyl)-pyridin-3-yl]-N-methyl-isobutyramide]
- melting point: 186 to 188 °C

Structure (SMILES): Cc1ccccc1-c1cc(N2CCN(Cc3n[nH]c(=O)[nH]3)CC2)ncc1C(=O)N(C)Cc1cc(C(F)(F)F)cc(C(F)(F)F)c1 [Example 58, N-(3,5-Bis-trifluoromethyl-benzyl)-N-methyl-6-[4-(5-oxo-4,5-dihydro-1H-[1,2,4]triazol-3-ylmethyl)-piperazin-1-yl]-4-o-tolyl-nicotinamide]
- Ki (human NK1 receptor [1]): 0.288 nM

Structure (SMILES): CC(C)c1cc(Cl)ncc1C(=O)NC(C)(C)C [Example 83, N-tert-Butyl-6-chloro-4-(prop-2-yl)-nicotinamide]
- melting point: 130 to 140 °C (dec.)

Structure (SMILES): CC(C)(C)NC(=O)c1cnc(Cl)cc1-c1ccc(F)cc1 [Example 84, N-tert.-Butyl-6-chloro-4-p-fluoro-phenyl-nicotinamide]
- melting point: 168 to 173 °C

Structure (SMILES): Cc1ccccc1-c1cc(N2CCOCC2)ncc1N(C)C(=O)C(C)(C)c1cc(C(F)(F)F)cc(C(F)(F)F)c1 [Ia, 2-(3,5-bis-trifluoromethyl-phenyl)-N-methyl-N-(6-morpholin-4-yl-4-o-tolyl-pyridin-3-yl)-isobutyramide]
- Ki (human NK1 receptor [1]): 1 nM
- Vd (in vivo): 22 L/kg
- clearance (in vivo): 16 mL/min/kg
- half-life (in vivo): 40 h
- bioavailability (in vivo): 30 to 40%
- selectivity for the NK1 receptor compared to NK3 receptors (NK3 receptors): over 2 orders of magnitude
- emesis induced by all emetogens (apomorphine, morphine, ipecacuanha, cisplatin, CuSO4) [2]: completely blocked
- dose calculated to inhibit 50% of the foot-tapping behaviour [3]: 0.2 mg/kg
- selectivity for the NK1 receptor compared to over 50 other binding sites [4]: over 2 orders of magnitude
- clearance [5]: 4 mL/min/kg
- bioavailability [5]: 50%
- half-life [5]: 23 h
- Vd [5]: 8 L/kg
- selectivity for the NK1 receptor compared to NK2 receptors (NK2 receptors): over 2 orders of magnitude
- effect on substance P induced Ca2+ influxes (human NK1 receptor [6]): rightward shift in the concentration effect curve of substance P
- type of antagonism at human recombinant NK1 receptors (human NK1 receptor [6]): competitive antagonist
- slope of the Schild regression (human NK1 receptor [6]; substance P induced Ca2+ influx, CHO cells): 1.1

Structure (SMILES): CN(C(=O)C(C)(C)c1cc(C(F)(F)F)cc(C(F)(F)F)c1)c1cnccc1-c1ccccc1Cl [Ic, 2-(3,5-Bis-trifluoromethyl-phenyl)-N-[4-(2-chloro-phenyl)-pyridin-3-yl]-N-methyl-isobutyramide]
- Ki (human NK1 receptor [1]): 2.51 nM
- Vd (in vivo): 4.5 L/kg
- clearance (in vivo): 30 mL/min/kg
- half-life (in vivo): 3.5 h
- bioavailability (in vivo): 16%
- selectivity for the NK1 receptor compared to NK3 receptors (NK3 receptors): over 2 orders of magnitude
- total plasma concentration required to completely block the foot-tapping behaviour [3]: 100 ng/mL
- dose calculated to inhibit 50% of the foot-tapping behaviour [3]: 1.5 mg/kg
- selectivity for the NK1 receptor compared to over 50 other binding sites [4]: over 2 orders of magnitude
- clearance [5]: 45 mL/min/kg
- bioavailability [5]: ~30%
- half-life [5]: 11 h
- Vd [5]: 2.6 L/kg
- selectivity for the NK1 receptor compared to NK2 receptors (NK2 receptors): over 2 orders of magnitude
- effect on substance P induced Ca2+ influxes (human NK1 receptor [6]): inhibited this effect in a concentration dependent manner
- type of antagonism at human recombinant NK1 receptors (human NK1 receptor [6]): competitive antagonist

Continued, in another order:

- melting point: 174 to 175 °C
Structure (SMILES): Cc1ccccc1-c1cc(N(C)C)ncc1N(C)C(=O)C(C)(C)c1cc(C(F)(F)F)cc(C(F)(F)F)c1 (as salt: hydrochloride) [Example 29, 2-(3,5-Bis-trifluoromethyl-phenyl)-N-(6-dimethylamino-4-o-tolyl-pyridin-3-yl)-N-methyl-isobutyramide]

- Ki (human NK1 receptor [1]): 3.39 nM
Structure (SMILES): Cc1ccccc1-c1ccncc1N(C)C(=O)C(C)(C)c1cc(C(F)(F)F)cc(C(F)(F)F)c1 [Example 18, 2-(3,5-Bis-trifluoromethyl-phenyl)-N-methyl-N-(4-o-tolyl-pyridin-3-yl)-isobutyramide Hydrochloride (1:1)]

- Ki (human NK1 receptor [1]): 2 nM
Structure (SMILES): Cc1ccccc1-c1cc(N(C)CCN2CCOCC2)ncc1N(C)C(=O)C(C)(C)c1cc(C(F)(F)F)cc(C(F)(F)F)c1 [Example 25, 2-(3,5-Bis-trifluoromethyl-phenyl)-N-methyl-N-{6-[methyl-(2-morpholin-4-yl-ethyl)-amino]-4-o-tolyl-pyridin-3-yl}-isobutyramide]

- Ki (human NK1 receptor [1]): 1 nM
Structure (SMILES): Cc1ccccc1-c1cc(N2CCNCC2)ncc1N(C)C(=O)C(C)(C)c1cc(C(F)(F)F)cc(C(F)(F)F)c1 [Example 31, 2-(3,5-Bis-trifluoromethyl-phenyl)-N-methyl-N-(6-piperazin-1-yl-4-o-tolyl-pyridin-3-yl)-isobutyramide]

- Ki (human NK1 receptor [1]): 1 nM
- Vd (in vivo): 15 L/kg
- clearance (in vivo): 9.2 mL/min/kg
- half-life (in vivo): 18 h
- bioavailability (in vivo): 75%
- selectivity for the NK1 receptor compared to NK3 receptors (NK3 receptors): over 2 orders of magnitude
- selectivity for the NK1 receptor compared to over 50 other binding sites [4]: over 2 orders of magnitude
- clearance [5]: 3.7 mL/min/kg
- bioavailability [5]: 45%
- half-life [5]: 24 h
- Vd [5]: 5.7 L/kg
- selectivity for the NK1 receptor compared to NK2 receptors (NK2 receptors): over 2 orders of magnitude
- type of antagonism at human recombinant NK1 receptors (human NK1 receptor [6]): competitive antagonist
Structure (SMILES): Cc1ccccc1-c1cc(N2CCN(C)CC2)ncc1N(C)C(=O)C(C)(C)c1cc(C(F)(F)F)cc(C(F)(F)F)c1 [Ib, 2-(3,5-bis-trifluoromethyl-phenyl)-N-methyl-N-[6-(4-methyl-piperazin-1-yl)-4-o-tolyl-pyridin-3-yl]-isobutyramide]
- emesis induced by all emetogens (apomorphine, morphine, ipecacuanha, cisplatin, CuSO4) [2]: completely blocked
- ED50 ([2]; Mustela putorius, po, read-out: ED50 against apomorphine-induced emesis): 0.1 mg/kg
- total plasma concentration required to completely block the foot-tapping behaviour [3]: 30 ng/mL
- dose calculated to inhibit 50% of the foot-tapping behaviour [3]: 0.5 mg/kg
- ED50 [7]: 0.2 mg/kg
- effect on substance P induced Ca2+ influxes (human NK1 receptor [6]): inhibited this effect in a concentration dependent manner

Source: US20020091265A1, “4-phenyl-pyridine derivatives” (priority 1999, published 2002)
